Reference: ChEMBL document CHEMBL4308841, “Synthesis, in vitro antiproliferative activity, and kinase inhibitory effects of pyrazole-containing diarylureas and diarylamides” (Eur J Med Chem, 2018)

Legend:
RPMI-8226 = test: Growth inhibition of human RPMI8226 cells assessed as cell growth at 0.1 uM incubated for 48 hrs by sulforhodamine B assay relative to control; assay type: functional; details: RPMI-8226, 48 h, read-out: Activity
MDA-MB-435 = test: Growth inhibition of human MDA-MB-435 cells assessed as cell growth at 1 uM incubated for 48 hrs by sulforhodamine B assay relative to control; assay type: functional; details: MDA-MB-435, 48 h, read-out: Activity
HL-60(TB) [1] = test: Growth inhibition of human HL-60(TB) cells assessed as cell growth at 100 uM incubated for 48 hrs by sulforhodamine B assay relative to control; assay type: functional; details: HL-60, 48 h, read-out: Activity
SNB-19 = test: Growth inhibition of human SNB19 cells assessed as cell growth at 100 uM incubated for 48 hrs by sulforhodamine B assay relative to control; assay type: functional; details: SNB-19, 48 h, read-out: Activity
NCI-H460 = test: Growth inhibition of human NCI-H460 cells incubated for 48 hrs by sulforhodamine B assay; assay type: functional, cell-based; details: NCI-H460, 48 h
ACHN = test: Growth inhibition of human ACHN cells assessed as cell growth at 0.01 uM incubated for 48 hrs by sulforhodamine B assay relative to control; assay type: functional; details: read-out: Activity
OVCAR-4 = test: Growth inhibition of human OVCAR4 cells assessed as cell growth at 0.1 uM incubated for 48 hrs by sulforhodamine B assay relative to control; assay type: functional; details: OVCAR-4, 48 h, read-out: Activity
786-0 [2] = test: Growth inhibition of human 786-0 cells assessed as cell growth at 0.01 uM incubated for 48 hrs by sulforhodamine B assay relative to control; assay type: functional; details: 786-0, 48 h, read-out: Activity
CAKI-1 = test: Growth inhibition of human Caki1 cells incubated for 48 hrs by sulforhodamine B assay; assay type: functional, cell-based; details: CAKI-1, 48 h
NCI-H226 = test: Growth inhibition of human NCI-H226 cells assessed as cell growth at 0.1 uM incubated for 48 hrs by sulforhodamine B assay relative to control; assay type: functional; details: NCI-H226, 48 h, read-out: Activity
MDA-MB-231 [3] = test: Growth inhibition of human MDA-MB-231 cells assessed as cell growth at 100 uM incubated for 48 hrs by sulforhodamine B assay relative to control; assay type: functional; details: MDA-MB-231, 48 h, read-out: Activity
BT-549 [4] = test: Growth inhibition of human BT549 cells incubated for 48 hrs by sulforhodamine B assay; assay type: functional, cell-based; details: BT-549, 48 h
SF-295 = test: Growth inhibition of human SF295 cells assessed as cell growth at 1 uM incubated for 48 hrs by sulforhodamine B assay relative to control; assay type: functional; details: SF-295, 48 h, read-out: Activity
SN12C = test: Growth inhibition of human SN12C cells incubated for 48 hrs by sulforhodamine B assay; assay type: functional, cell-based
BT-549 [5] = test: Growth inhibition of human BT549 cells assessed as cell growth at 0.01 uM incubated for 48 hrs by sulforhodamine B assay relative to control; assay type: functional; details: BT-549, 48 h, read-out: Activity
RXF 393 = test: Growth inhibition of human RXF393 cells assessed as cell growth at 1 uM incubated for 48 hrs by sulforhodamine B assay relative to control; assay type: functional; details: RXF 393, 48 h, read-out: Activity
HL-60(TB) [6] = test: Growth inhibition of human HL-60(TB) cells incubated for 48 hrs by sulforhodamine B assay; assay type: functional, cell-based; details: HL-60, 48 h
OVCAR-5 = test: Growth inhibition of human OVCAR5 cells incubated for 48 hrs by sulforhodamine B assay; assay type: functional, cell-based; details: OVCAR-5, 48 h
MDA-MB-231 [7] = test: Growth inhibition of human MDA-MB-231 cells incubated for 48 hrs by sulforhodamine B assay; assay type: functional, cell-based; details: MDA-MB-231, 48 h
PC-3 = test: Growth inhibition of human PC3 cells assessed as cell growth at 100 uM incubated for 48 hrs by sulforhodamine B assay relative to control; assay type: functional; details: PC-3, 48 h, read-out: Activity
MDA-MB-468 = test: Growth inhibition of human MDA-MB-468 cells assessed as cell growth at 0.1 uM incubated for 48 hrs by sulforhodamine B assay relative to control; assay type: functional; details: MDA-MB-468, 48 h, read-out: Activity
HL-60(TB) [8] = test: Growth inhibition of human HL-60(TB) cells assessed as cell growth at 0.01 uM incubated for 48 hrs by sulforhodamine B assay relative to control; assay type: functional; details: HL-60, 48 h, read-out: Activity
MCF7 = test: Growth inhibition of human MCF7 cells assessed as cell growth at 100 uM incubated for 48 hrs by sulforhodamine B assay relative to control; assay type: functional; details: MCF7, 48 h, read-out: Activity
HCC 2998 = test: Growth inhibition of human HCC2998 cells assessed as cell growth at 0.1 uM incubated for 48 hrs by sulforhodamine B assay relative to control; assay type: functional; details: HCC 2998, 48 h, read-out: Activity
SW-620 = test: Growth inhibition of human SW620 cells assessed as cell growth at 0.1 uM incubated for 48 hrs by sulforhodamine B assay relative to control; assay type: functional; details: SW-620, 48 h, read-out: Activity
T47D = test: Growth inhibition of human T47D cells assessed as cell growth at 1 uM incubated for 48 hrs by sulforhodamine B assay relative to control; assay type: functional; details: read-out: Activity
NCI-H322M = test: Growth inhibition of human NCI-H322M cells assessed as cell growth at 0.01 uM incubated for 48 hrs by sulforhodamine B assay relative to control; assay type: functional; details: read-out: Activity
786-0 [9] = test: Growth inhibition of human 786-0 cells incubated for 48 hrs by sulforhodamine B assay; assay type: functional, cell-based; details: 786-0, 48 h
[10] = read-out: LC50 (the source's name)
[11] = read-out: pLC50 (the source's name) (converted)

O=C(Nc1cccc(-n2cc(-c3ccncc3)c(-c3cc(O)cc(Cl)c3)n2)c1)c1ccc(N2CCOCC2)c(C(F)(F)F)c1
growth at 0.1 µM (RPMI-8226): 100%
growth at 1 µM (MDA-MB-435): 54%
growth at 100 µM (HL-60(TB) [1]): -48%
growth at 100 µM (SNB-19): -12%
GI50 (NCI-H460; read-out: GI50): 0.797 µM
CC50 (NCI-H460; [10]): > 100 µM
TGI (NCI-H460; read-out: TGI): 34.8 µM
GI50 (NCI-H460; read-out: pGI50 (converted)): 0.794 µM
CC50 (NCI-H460; [11]): > 100 µM
TGI (NCI-H460; read-out: pTGI (converted)): 3.55 µM
growth at 0.01 µM (ACHN): 100%
growth at 0.1 µM (OVCAR-4): 103%
growth at 0.01 µM (786-0 [2]): 102%
GI50 (CAKI-1; read-out: GI50): 1.1 µM
CC50 (CAKI-1; [10]): > 100 µM
TGI (CAKI-1; read-out: TGI): 60 µM
GI50 (CAKI-1; read-out: pGI50 (converted)): 1.1 µM
CC50 (CAKI-1; [11]): > 100 µM
TGI (CAKI-1; read-out: pTGI (converted)): 6.03 µM
growth at 0.1 µM (NCI-H226): 93%
growth at 100 µM (MDA-MB-231 [3]): -58%
GI50 (BT-549 [4]; read-out: GI50): 4.21 µM
CC50 (BT-549 [4]; [10]): > 100 µM
TGI (BT-549 [4]; read-out: TGI): > 100 µM
GI50 (BT-549 [4]; read-out: pGI50 (converted)): 4.17 µM
CC50 (BT-549 [4]; [11]): > 100 µM
TGI (BT-549 [4]; read-out: pTGI (converted)): > 100 µM
growth at 1 µM (SF-295): 39%
GI50 (SN12C; read-out: GI50): 6.37 µM
LC50 (SN12C; read-out: LC50): > 100 µM
TGI (SN12C; read-out: TGI): > 100 µM
GI50 (SN12C; read-out: pGI50 (converted)): 6.31 µM
LC50 (SN12C; read-out: pLC50 (converted)): > 100 µM
TGI (SN12C; read-out: pTGI (converted)): > 100 µM
growth at 0.01 µM (BT-549 [5]): 100%
growth at 1 µM (RXF 393): 13%
GI50 (HL-60(TB) [6]; read-out: GI50): 0.81 µM
LC50 (HL-60(TB) [6]; read-out: LC50): > 100 µM
TGI (HL-60(TB) [6]; read-out: TGI): 30.4 µM
GI50 (HL-60(TB) [6]; read-out: pGI50 (converted)): 0.813 µM
LC50 (HL-60(TB) [6]; read-out: pLC50 (converted)): > 100 µM
TGI (HL-60(TB) [6]; read-out: pTGI (converted)): 3.02 µM
GI50 (OVCAR-5; read-out: GI50): 14.8 µM
CC50 (OVCAR-5; [10]): > 100 µM
TGI (OVCAR-5; read-out: TGI): 39.6 µM
GI50 (OVCAR-5; read-out: pGI50 (converted)): 14.8 µM
CC50 (OVCAR-5; [11]): > 100 µM
TGI (OVCAR-5; read-out: pTGI (converted)): 39.8 µM
GI50 (MDA-MB-231 [7]; read-out: GI50): 0.327 µM
CC50 (MDA-MB-231 [7]; [10]): 27 µM
TGI (MDA-MB-231 [7]; read-out: TGI): 16.6 µM
GI50 (MDA-MB-231 [7]; read-out: pGI50 (converted)): 0.324 µM
CC50 (MDA-MB-231 [7]; [11]): 26.9 µM
TGI (MDA-MB-231 [7]; read-out: pTGI (converted)): 1.66 µM
growth at 100 µM (PC-3): -8%
growth at 0.1 µM (MDA-MB-468): 54%
growth at 0.01 µM (HL-60(TB) [8]): 92%
growth at 100 µM (MCF7): 14%
growth at 0.1 µM (HCC 2998): 100%
growth at 0.1 µM (SW-620): 105%
growth at 1 µM (T47D): 80%
growth at 0.01 µM (NCI-H322M): 56%
GI50 (786-0 [9]; read-out: GI50): 2.24 µM
CC50 (786-0 [9]; [10]): 41 µM
TGI (786-0 [9]; read-out: TGI): 10.1 µM
GI50 (786-0 [9]; read-out: pGI50 (converted)): 2.24 µM
CC50 (786-0 [9]; [11]): 40.7 µM
TGI (786-0 [9]; read-out: pTGI (converted)): 10 µM
